Assay results published in patent US9687490B2, “Triazine derivatives for the treatment of conditions associated with nicotinamide adenine dinucleotide phosphate oxidase” (GLUCOX BIOTECH AB, priority 2012, dated 2017).
Several values for one entry are separate records, joined by “and”; a condition that tells them apart may be missing. Equal entries are not always repeated.

Test system: stroke induced mice
Assay: Stroke animal model: transient middle cerebral artery occlusion (tMCAO), infarct size by TTC staining
Format: in vivo
Details: individual animals, 3.2 mg/kg i.p. at 2 h and 12 h, 1 h occlusion, 23 h reperfusion, C57Bl6 mice
Experimental: Mice (10-12 wk), wild type C57BI6, 6 animals, were used:
Test (n=3) stroke induced mouse treated i.p. with inventive compound M4 (N^2-(3,4-dimethylphenyl)-6-((4-(3-methoxyphenyl)piperazin-1-yl)methyl)-1,3,5-triazine-2,4-diamine).
M4 preparation for intra peritoneal i.p. administration: 3.5 mg of M4 were first dissolved in 1 ml of DMSO. After the substance was totally dissolved, 5 ml of 20% Cremophor ELP in PBS (phosphate buffered saline solution) was added. Thereafter an additional 4 ml of PBS was added. The 20% Cremophor ELP solution was prepared by dissolving 10.5 g of Cremophor in 50 ml of PBS.
Injection volume of M4: The dose was 3.2 mg/kg, calculated for each animal at each event of administration (2 h and 12 h).
• 1. Transient middle cerebral artery occlusion (tMCAO) by blocking with a filament for 1 h. • 2. Reperfusion after 1 h by removing filament • 3. Injection of M4 by i.p. after 2 h and repeated injection i.p. after 12 h • 4. Sacrifice the animal after 24 h and infarct size is determined by triphenyl tetrazolium chloride (TTC) staining—Thus the procedure of middle cerebral artery occlusion (MCAO); 1 h occlusion and 23 h reperfusion. • 5. […]
Mice were killed 24 hours after tMCAO. […] The occurrence of Intra Cerebral Hemorrhage (ICH) was macroscopically assessed on whole brains and again after the 2-mm-thick coronal brain slices were cut (see above) before TTC staining. […]

In the case of `COc1cccc(N2CCN(Cc3nc(N)nc(Nc4ccc(C)c(C)c4)n3)CC2)c1` [M4, N^2-(3,4-dimethylphenyl)-6-((4-(3-methoxyphenyl)piperazin-1-yl)methyl)-1,3,5-triazine-2,4-diamine], the Infarct volume was 73 mm^3 and 145 mm^3 and 134 mm^3.
